From US20060276464A1, “Diarylsulfone sulfonamides and use thereof” (Wyeth, priority 2005, published 2006) come the findings set out here.

Where two headings read alike, the source gives them in different places.

The target in this data set is T1, SFRP-1 (Homo sapiens, UniProt Q8N474).
T1 sequence (Q8N474 32-314): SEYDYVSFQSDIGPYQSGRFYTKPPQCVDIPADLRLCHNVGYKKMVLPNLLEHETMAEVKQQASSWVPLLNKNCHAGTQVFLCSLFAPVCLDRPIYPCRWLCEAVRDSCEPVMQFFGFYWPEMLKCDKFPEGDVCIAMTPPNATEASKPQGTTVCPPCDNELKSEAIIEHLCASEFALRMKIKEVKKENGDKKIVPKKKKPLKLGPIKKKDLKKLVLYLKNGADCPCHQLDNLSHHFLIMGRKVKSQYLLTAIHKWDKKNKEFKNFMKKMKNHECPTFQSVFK
As to the kind of experiment: Cell-based assay for in vitro measurement of SFRP-1/SARP2 antagonist activity (U2OS cells co-transfected with 16x TCF-tk-Luciferase reporter, Wnt and hSFRP-1).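 For all read-outs here: U2OS cells co-transfected with a TCF-tk luciferase reporter, a Wnt vector, hSFRP-1 or empty vector and CMV-βgal, luciferase luminescence read in cell lysates alongside βgal activity.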 To be noted: for Fold Induction with SFRP-1 / Fold Induction without SFRP-1: Conc 15 μM; for fold induction at 15 µM / fold induction at 30 µM: U2OS.

[1] abbreviates: with SFRP-1, fold induction over SFRP-1 control, single dose.
The mark [2] stands for this setting: read-out: Fold Induction with SFRP-1, Conc 15 μM, with SFRP-1, fold induction over SFRP-1 control, single dose.
Where [3] appears, read: read-out: Fold Induction without SFRP-1, Conc 15 μM, without SFRP-1, single dose.
Setting [4] is: read-out: Fold Induction with SFRP-1, Conc 30 μM, with SFRP-1, fold induction over SFRP-1 control, single dose.
Setting [5] is: read-out: Fold Induction without SFRP-1, Conc 30 μM, without SFRP-1, single dose.

For `Cc1ccc(S(=O)(=O)c2ccc(F)cc2)cc1S(=O)(=O)NCCc1ccccn1` [Example 162, 5-[(4-fluorophenyl)sulfonyl]-2-methyl-N-(2-pyridin-2-ylethyl)benzenesulfonamide], the “Fold Induction with SFRP-1” value under setting [1] was 2.5 fold. The “Fold Induction without SFRP-1” value (without SFRP-1, single dose) is 1 fold. Further, the fold induction at 15 µM reads like this: under setting [2], 2.7; under setting [3], 0.8.

Regarding `Cc1ccc(S(=O)(=O)c2ccc(F)cc2)cc1S(=O)(=O)NCCCN1CCOCC1` [Example 163, 5-[(4-fluorophenyl)sulfonyl]-2-methyl-N-(3-morpholin-4-ylpropyl)benzenesulfonamide], the fold induction at 15 µM was 2 under setting [2] and 0.9 under setting [3].

On to `Cc1ccc(S(=O)(=O)c2ccc(F)cc2)cc1S(=O)(=O)NCCC1CCCN1C` (stereo not shown) [Example 164, 5-[(4-fluorophenyl)sulfonyl]-2-methyl-N-[2-(1-methylpyrrolidin-2-yl)ethyl]benzenesulfonamide], for which the fold induction at 15 µM under setting [2] stood at 1.9 and the fold induction at 15 µM under setting [3] came out at 1.1.

Consider `Cc1ccc(S(=O)(=O)c2ccc(F)cc2)cc1S(=O)(=O)NCCc1ccncc1` [Example 165, 5-[(4-fluorophenyl)sulfonyl]-2-methyl-N-(2-pyridin-4-ylethyl)benzenesulfonamide], for which the fold induction at 15 µM under setting [2] amounted to 3.3 and the fold induction at 15 µM under setting [3] is 1.

As for `Cc1ccc(S(=O)(=O)c2ccc(F)cc2)cc1S(=O)(=O)NCCN1CCCCC1` [Example 166, 5-[(4-fluorophenyl)sulfonyl]-2-methyl-N-(2-piperidin-1-ylethyl)benzenesulfonamide], the fold induction at 15 µM was 2 under setting [2] and 1.1 under setting [3].

With `Cc1ccc(S(=O)(=O)c2ccc(F)cc2)cc1S(=O)(=O)NCCc1c[nH]cn1` [Example 167, 5-[(4-fluorophenyl)sulfonyl]-N-[2-(1H-imidazol-4-yl)ethyl]-2-methylbenzenesulfonamide], the fold induction at 15 µM by setting is: under setting [2], 3; under setting [3], 1.

With `CC(=O)NCCNS(=O)(=O)c1cc(S(=O)(=O)c2ccc(F)cc2)ccc1C` [Example 168, N-{2-[({5-[(4-fluorophenyl)sulfonyl]-2-methylphenyl}sulfonyl)amino]ethyl}acetamide], the fold induction at 15 µM is 1.7 under setting [2] and 0.9 under setting [3].

For the molecule `Cc1ccc(S(=O)(=O)c2ccc(F)cc2)cc1S(=O)(=O)NCCCN1CCCC1=O` [Example 170, 5-[(4-fluorophenyl)sulfonyl]-2-methyl-N-[3-(2-oxopyrrolidin-1-yl)propyl]benzenesulfonamide], the fold induction at 15 µM is 2.3 under setting [2] and 0.9 under setting [3].

On to `CCN(CC)CCNS(=O)(=O)c1cc(S(=O)(=O)c2ccc(F)cc2)ccc1C` [Example 171, N-[2-(diethylamino)ethyl]-5-[(4-fluorophenyl)sulfonyl]-2-methylbenzenesulfonamide], for which the fold induction at 15 µM runs as follows: under setting [2], 2.2; under setting [3], 1.2.

Take `Cc1ccc(S(=O)(=O)c2ccc(F)cc2)cc1S(=O)(=O)NCCN(C)C` [Example 172, N-[2-(dimethylamino)ethyl]-5-[(4-fluorophenyl)sulfonyl]-2-methylbenzenesulfonamide]: the fold induction at 15 µM worked out at 1.9 under setting [2] and 1.1 under setting [3].

Take `COCCCNS(=O)(=O)c1cc(S(=O)(=O)c2ccc(F)cc2)ccc1C` [Example 173, 5-[(4-fluorophenyl)sulfonyl]-N-(3-methoxypropyl)-2-methylbenzenesulfonamide]: the “Fold Induction with SFRP-1” value under setting [1] came out at 2 fold. Besides, under “without SFRP-1, single dose”, the “Fold Induction without SFRP-1” value stood at 1 fold. Further, the fold induction at 15 µM by setting is: under setting [2], 2.5; under setting [3], 0.8.

As to `Cc1ccc(S(=O)(=O)c2ccc(F)cc2)cc1S(=O)(=O)NCCCN(C)C` [Example 174, N-[3-(dimethylamino)propyl]-5-[(4-fluorophenyl)sulfonyl]-2-methylbenzenesulfonamide], the fold induction at 15 µM came out at 2.8 under setting [2] and 1.2 under setting [3].

On to `COCCNS(=O)(=O)c1cc(S(=O)(=O)c2ccc(F)cc2)ccc1C` [Example 175, 5-[(4-fluorophenyl)sulfonyl]-N-(2-methoxyethyl)-2-methylbenzenesulfonamide], for which the fold induction at 15 µM by setting is: under setting [2], 2.5; under setting [3], 0.9.

In the case of `CCN(CC)CCCNS(=O)(=O)c1cc(S(=O)(=O)c2ccc(F)cc2)ccc1C` [Example 176, N-[3-(diethylamino)propyl]-5-[(4-fluorophenyl)sulfonyl]-2-methylbenzenesulfonamide], the fold induction at 15 µM is, setting by setting: under setting [2], 2.6; under setting [3], 1.3.

With `Cc1ccc(S(=O)(=O)c2ccc(F)cc2)cc1S(=O)(=O)NCCCN1CCCC1` [Example 178, 5-[(4-fluorophenyl)sulfonyl]-2-methyl-N-(3-pyrrolidin-1-ylpropyl)benzenesulfonamide], the fold induction at 15 µM stood at 2.8 under setting [2] and 1.5 under setting [3].

Regarding `Cc1ccc(S(=O)(=O)c2ccc(F)cc2)cc1S(=O)(=O)NCCCN1CCN(C)CC1` [Example 179, 5-[(4-fluorophenyl)sulfonyl]-2-methyl-N-[3-(4-methylpiperazin-1-yl)propyl]benzenesulfonamide], the fold induction at 15 µM under setting [2] came to 2 and the fold induction at 15 µM under setting [3] was 1.1.

On to `Cc1ccc(S(=O)(=O)c2ccc(F)cc2)cc1S(=O)(=O)NCCC(=O)O` [Example 180, N-({5-[(4-fluorophenyl)sulfonyl]-2-methylphenyl}sulfonyl)-beta-alanine], for which the fold induction at 15 µM under setting [2] turned out to be 1.2 and the fold induction at 15 µM under setting [3] was 1.

Consider `NC(=O)CCNS(=O)(=O)c1cccc(S(=O)(=O)c2ccccc2)c1` [Example 181, N^3-{[3-(phenylsulfonyl)phenyl]sulfonyl}-beta-alaninamide], for which the fold induction at 30 µM was determined as 0.6 under setting [4] and 1 under setting [5].

With `COC(=O)CCNS(=O)(=O)c1cccc(S(=O)(=O)c2ccccc2)c1` [Example 182, methyl N-{[3-(phenylsulfonyl)phenyl]sulfonyl}-beta-alaninate], the fold induction at 30 µM reads like this: under setting [4], 1; under setting [5], 1.

For the molecule `N#CCCNS(=O)(=O)c1cccc(S(=O)(=O)c2ccccc2)c1` [Example 183, N-(2-cyanoethyl)-3-(phenylsulfonyl)benzenesulfonamide], the fold induction at 30 µM came out at 1.3 under setting [4] and 1 under setting [5].

`O=S(=O)(NCCc1ccccn1)c1cccc(S(=O)(=O)c2ccccc2)c1` [Example 184, 3-(phenylsulfonyl)-N-(2-pyridin-2-ylethyl)benzenesulfonamide]: the fold induction at 30 µM was 1.2 under setting [4] and 0.9 under setting [5].

With `O=S(=O)(NCCCN1CCOCC1)c1cccc(S(=O)(=O)c2ccccc2)c1` [Example 185, N-(3-morpholin-4-ylpropyl)-3-(phenylsulfonyl)benzenesulfonamide], the fold induction at 30 µM came out at 1.3 under setting [4] and 1.1 under setting [5].

In the case of `CN1CCCC1CCNS(=O)(=O)c1cccc(S(=O)(=O)c2ccccc2)c1` (stereo not shown) [Example 186, N-[2-(1-methylpyrrolidin-2-yl)ethyl]-3-(phenylsulfonyl)benzenesulfonamide], the fold induction at 30 µM under setting [4] was determined as 1.3 and the fold induction at 30 µM under setting [5] turned out to be 1.3.

With `O=S(=O)(NCCc1ccncc1)c1cccc(S(=O)(=O)c2ccccc2)c1` [Example 187, 3-(phenylsulfonyl)-N-(2-pyridin-4-ylethyl)benzenesulfonamide], the fold induction at 30 µM reads like this: under setting [4], 1.9; under setting [5], 1.

Take `O=S(=O)(NCCN1CCCCC1)c1cccc(S(=O)(=O)c2ccccc2)c1` [Example 188, 3-(phenylsulfonyl)-N-(2-piperidin-1-ylethyl)benzenesulfonamide]: the fold induction at 30 µM under setting [4] worked out at 1.4 and the fold induction at 30 µM under setting [5] turned out to be 1.4.

As to `O=S(=O)(NCCc1c[nH]cn1)c1cccc(S(=O)(=O)c2ccccc2)c1` [Example 189, N-[2-(1H-imidazol-4-yl)ethyl]-3-(phenylsulfonyl)benzenesulfonamide], the fold induction at 30 µM under setting [4] was 1.3 and the fold induction at 30 µM under setting [5] came out at 1.

In the case of `CC(=O)NCCNS(=O)(=O)c1cccc(S(=O)(=O)c2ccccc2)c1` [Example 190, N-[2-({[3-(phenylsulfonyl)phenyl]sulfonyl}amino)ethyl]acetamide], the fold induction at 30 µM under setting [4] is 1.2 and the fold induction at 30 µM under setting [5] came to 1.

`O=S(=O)(NCCN1CCOCC1)c1cccc(S(=O)(=O)c2ccccc2)c1` [Example 191, N-(2-morpholin-4-ylethyl)-3-(phenylsulfonyl)benzenesulfonamide]: the fold induction at 30 µM turned out to be 1.2 under setting [4] and 1.2 under setting [5].

Regarding `O=C1CCCN1CCCNS(=O)(=O)c1cccc(S(=O)(=O)c2ccccc2)c1` [Example 192, N-[3-(2-oxopyrrolidin-1-yl)propyl]-3-(phenylsulfonyl)benzenesulfonamide], the fold induction at 30 µM under setting [4] is 1.1 and the fold induction at 30 µM under setting [5] amounted to 1.1.

Take `CCN(CC)CCNS(=O)(=O)c1cccc(S(=O)(=O)c2ccccc2)c1` [Example 193, N-[2-(diethylamino)ethyl]-3-(phenylsulfonyl)benzenesulfonamide]: the fold induction at 30 µM was found to be 1.2 under setting [4] and 1.3 under setting [5].
